Laboratory results from patent US20040171073A1, “Compounds for modulation of cholesterol transport” (Massachusetts Institute of Technology, priority 2002, published 2004).

Target: T1, murine SR-BI (Mus musculus, UniProt Q61009)
T1 construct: expressed in transfected cells; host or cells: ldlA-7 (LDL receptor deficient Chinese hamster ovary cells)
T1 sequence (Q61009 1-509): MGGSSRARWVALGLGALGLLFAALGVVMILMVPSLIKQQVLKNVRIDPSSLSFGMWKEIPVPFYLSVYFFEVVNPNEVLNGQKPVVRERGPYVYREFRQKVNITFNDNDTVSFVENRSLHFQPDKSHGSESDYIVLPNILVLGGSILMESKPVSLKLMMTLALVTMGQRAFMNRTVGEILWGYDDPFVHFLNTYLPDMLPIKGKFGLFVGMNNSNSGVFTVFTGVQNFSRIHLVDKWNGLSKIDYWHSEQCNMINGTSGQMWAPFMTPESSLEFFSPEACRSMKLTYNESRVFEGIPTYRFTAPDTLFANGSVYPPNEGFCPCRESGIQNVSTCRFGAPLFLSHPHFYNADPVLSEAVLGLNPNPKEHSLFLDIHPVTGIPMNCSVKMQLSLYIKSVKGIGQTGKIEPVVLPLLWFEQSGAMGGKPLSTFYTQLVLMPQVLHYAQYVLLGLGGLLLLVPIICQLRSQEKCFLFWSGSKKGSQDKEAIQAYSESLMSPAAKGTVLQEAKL
Test: Uptake of DiI from DiI-HDL by ldlA[mSR-BI] cells (high throughput screen and concentration dependence)
Format: cell-based

SMILES	ENDOHDL Test 1	ENDOHDL Test 2
Cc1cccc(N2C(=O)CN(C3CCOCC3)C2=O)c1 [MIT 9952-2]	1.34	1.2
O=C1CC(N2CCOCC2)C(=O)N1c1ccc(Br)cc1 (stereo not drawn) [MIT 9952-3]	1.32	1.17
COc1ccc2nc(C(=O)[O-])sc2c1.[Na+] [MIT 9952-14]	1.24	1.21
COc1ccc(N2C(=O)CC(N3CCCCC3)C2=O)cc1 (stereo not drawn) [MIT 9952-16]	1.25	1.26
O=C1CC(N2CCOCC2)C(=O)N1c1ccc(Br)cc1 (stereo not drawn) [MIT 9952-17]	1.32	1.17
Cc1nc(Cl)c(C(c2cc([N+](=O)[O-])ccc2Cl)c2c(Cl)nc(C)nc2Cl)c(Cl)n1 [MIT 9952-22]	1.27	1.4
Cl.NCCc1nc2ccccc2[nH]1 [MIT 9952-25]	1.21	1.69
CCCCN1CCC(Cl)(c2ccccc2)C(C(=O)c2ccccc2)C1 (stereo not drawn) [MIT 9952-26]	1.28	1.32
COc1ccc(COCC(Cl)CN2CCCCC2)cc1OC.Cl (stereo not drawn) [MIT 9952-40]	1.28	1.23
O=C(CC1=CCCCC1)Nc1cc([N+](=O)[O-])ccc1Cl [MIT 9952-46]	1.32	1.18
O=C(O)c1cc(C(=O)O)nc(C(=O)O)c1 [MIT 9952-60]	1.13	1.17
NSCc1nc(-c2ccc(Cl)cc2)no1 [MIT 9952-64]	0.58	0.58
O=C(/C=C/C=C(Cl)Cl)c1ccc2c(c1)OCO2 [MIT 9952-65]	1.29	1.24
Cc1cc(C)c(/C=N/N=C/c2c(C)cc(C)cc2C)c(C)c1 [MIT 9952-69]	1.18	1.32
CCNc1ccc(N)c(C)c1C.O=S(=O)(O)O [MIT 9952-74]	0.71	0.69
COC(=O)Nc1cc([N+](=O)[O-])cc([N+](=O)[O-])c1Br [MIT 9952-79]	0.61	0.63
Cc1cccc(N2C(=O)CC(N3CCOCC3)C2=O)c1 (stereo not drawn) [MIT 9952-80]	1.34	1.2
O=C1CC(N2CCOCC2)C(=O)N1c1ccc(Br)cc1 (stereo not drawn) [MIT 9952-81]	1.32	1.17
Cc1nc(O)c(C(c2cc([N+](=O)[O-])ccc2O)c2c(O)nc(C)nc2O)c(O)n1 [MIT 9952-82]	1.27	1.4
O=C(O)CSC1CCCC/C1=N\Nc1ccc([N+](=O)[O-])cc1[N+](=O)[O-] (stereo not drawn) [MIT 9952-84]	0.74	0.66
CSc1sc(SC)c(C[n+]2ccccc2)c1C[n+]1ccccc1.[I-].[I-] [MIT 9952-85]	0.56	0.68
CCn1c(/C=C/C=C2\SCCN2C)[n+](CC)c2cc(Cl)ccc21 [MIT 9952-92]	0.7	0.63
O=C1CC(N2CCOCC2)C(=O)N1c1ccc(Br)cc1 (stereo not drawn) [MIT 9952-96]	1.32	1.17
Cc1nn(-c2ccc([N+](=O)[O-])cc2)c(Cl)c1[N+](=O)[O-] [MIT 9952-103]	0.56	0.61
CC(C)C(=O)NC(NC(=S)Nc1cccc(C(=O)Cl)c1)C(Cl)(Cl)Cl (stereo not drawn) [MIT 9952-117]	1.26	1.58
CCOC(=O)c1c(NC(=O)c2ccc(N)c([N+](=O)[O-])c2)sc2c1CCCC2 [MIT 9952-121]	0.54	0.57

Next, values leading:

ENDOHDL Test 1	ENDOHDL Test 2	SMILES
1.17	1.33	O=C(Cl)c1ccccc1NS(=O)(=O)/C=C/c1ccccc1 [MIT 9952-4]
0.5	0.51	O=C(/C=C/c1ccccc1)NC(NC(=S)Nc1cccc([N+](=O)[O-])c1)C(Cl)(Cl)Cl (stereo not drawn) [MIT 9952-7]
1.25	1.26	CC(CC(=O)NCCc1c[nH]c2ccccc12)C(=O)Cl (stereo not drawn) [MIT 9952-12]
0.55	0.67	CC(=O)Oc1ccc2ccccc2c1C=O [MIT 9952-13]
0.55	0.61	Nc1nc(-c2ccccc2)nc2sc3c(c12)CCCC3 [MIT 9952-15]
1.21	1.22	O=C(Cl)CCNC(=O)c1ccccc1 [MIT 9952-18]
1.33	1.17	O=C(COc1ccc(Cl)cc1)N/N=C/c1ccc(Cl)cc1 [MIT 9952-31]
0.56	0.56	O=C(Nc1ccc(C2Nc3ccc(SC(=O)c4ccc(Cl)cc4)c(Cl)c3S2)cc1)c1ccc(Cl)cc1 (stereo not drawn) [MIT 9952-35]
0.34	0.52	Cc1cc(C(=O)N/C=C\c2c(Cl)ccc3ccccc23)[nH]n1 [MIT 9952-38]
1.27	1.21	O=C(Cl)c1ccc2c(c1)C(=O)N(c1ccc(-c3ccnc(-c4ccc(N5C(=O)c6ccc(C(=O)Cl)cc6C5=O)cc4)n3)cc1)C2=O [MIT 9952-42]
0.44	0.46	O=C(Nc1ccc(Cl)cc1C(=O)c1ccc(Cl)cc1)c1cc(Cl)ccc1NS(=O)(=O)c1ccc(Cl)cc1 [MIT 9952-45]
1.18	1.37	CC(C)(C)c1ccc(C(=O)Nc2ccccc2C(=O)Cl)cc1 [MIT 9952-47]
0.68	0.49	CC(C)(C)c1ccc(C(=O)Nc2ccccc2C(=O)O)cc1 [MIT 9952-48]
1.26	1.26	C=C(N/N=C(\C)c1ccccc1C(=O)O)c1ccccc1 [MIT 9952-56]
1.13	1.25	CCS(=O)(=O)C(=C(Nc1ccc(OC)cc1)Nc1ccc(OC)cc1)S(=O)(=O)CC [MIT 9952-57]
0.35	0.44	[O-][n+]1onc2c3cc(-c4ccccc4)[nH]c3ccc21 [MIT 9952-59]
1.28	1.24	CCN(CC(O)COc1ccccc1C(C)=O)S(=O)(=O)O.[Na+] (stereo not drawn) [MIT 9952-62]
0.55	0.54	O=C(CSC1=NCCN1)Nc1ccccc1 [MIT 9952-67]
0.62	0.55	CCOC(=O)c1c(C)n(-c2ccccc2)c2ccc(NS(=O)(=O)c3ccccc3)cc12 [MIT 9952-71]

ENDOHDL Test 1	ENDOHDL Test 2	SMILES
1.07	1.12	CN(CC#CC(O)(c1ccccc1)c1ccccc1)C1CCCCC1 [MIT 9952-72]
0.61	0.59	CCOC(=O)c1c(C)n(-c2ccc(C)cc2)c2ccc(O)cc12 [MIT 9952-73]
0.64	0.71	O=C(C[n+]1ccc(CCSC2Cc3cccc4cccc2c34)cc1)c1ccc([N+](=O)[O-])cc1 (stereo not drawn) [MIT 9952-75]
1.25	1.26	C/C(=C\C(=O)NCCc1c[nH]c2ccccc12)C(=O)O [MIT 9952-76]
0.67	0.67	O=C(N/N=C/c1ccc(O)cc1)C1CC1(c1ccccc1)c1ccccc1 (stereo not drawn) [MIT 9952-87]
0.73	0.77	COc1ccc(/C=C2/S/C(=N/c3ccccc3)NC2=O)c(OC)c1 [MIT 9952-88]
0.62	0.61	O=C(NC(NC(=S)Nc1cc(C(F)(F)F)ccc1Cl)C(Cl)(Cl)Cl)c1ccco1 (stereo not drawn) [MIT 9952-90]
0.66	0.71	COc1ccc(/C(C)=N/NC(=O)C2CC2(c2ccccc2)c2ccccc2)c(OC)c1 (stereo not drawn) [MIT 9952-93]
1.21	1.22	O=C(O)CCNC(=O)c1ccccc1 [MIT 9952-94]
0.79	0.73	O=C1C(=O)c2ccc(Oc3ccc([N+](=O)[O-])cc3)c3cccc1c23 [MIT 9952-95]
0.5	0.51	O=C(/C=C/c1ccccc1)NC(NC(=S)Nc1cccc([N+](=O)[O-])c1)C(Cl)(Cl)Cl (stereo not drawn) [MIT 9952-100]
0.56	0.49	O=C(NC(NC(=S)Nc1cccc2ccccc12)C(Cl)(Cl)Cl)c1cccc([N+](=O)[O-])c1 (stereo not drawn) [MIT 9952-102]
0.6	0.53	O=C(NC(NC(=S)Nc1ccc(Cl)cc1Cl)C(Cl)(Cl)Cl)c1ccco1 (stereo not drawn) [MIT 9952-106]
1.19	1.75	CC1CC2(C)CC(C(=O)O2)C1C(=O)OCCOc1ccccc1 (stereo not drawn) [MIT 9952-109]
1.17	1.33	O=C(Cl)c1ccccc1NS(=O)(=O)/C=C/c1ccccc1 [MIT 9952-110]
0.51	0.63	COc1cccc(NC(=O)c2sc(-c3ccccc3)nc2-c2ccc([N+](=O)[O-])cc2)c1 [MIT 9952-118]
0.62	0.64	CC(=O)c1c(C)n(-c2ccccc2)c2ccc(O)cc12 [MIT 9952-119]
0.55	0.82	NC(/N=N/c1ccccc1)=N\Nc1ccccc1 [MIT 9952-122]
